In general, EC50 refers to the concentration giving half of the maximal effect.

The subject of one assay is recombinant NL-Rluc virus. Description: microbe, parasite or virus in culture. Type of assay: cell-based, HIV. The following applies: Human immunodeficiency virus 1, MT2, 120 h.
For `Cc1nc2cc(-n3cc(Cc4ccccc4)cn3)nn2c(N2CCC(C)(C)CC2)c1[C@H](OC(C)(C)C)C(=O)O` [Example 33, (S)-2-(2-(4-Benzyl-1H-pyrazol-1-yl)-7-(4,4-dimethylpiperidin-1-yl)-5-methylpyrazolo[1,5-a]pyrimidin-6-yl)-2-(tert-butoxy)acetic acid], the EC50 was found to be 11 nM.

The assay is the same for the next values; noted with them: Human immunodeficiency virus 1, MT2, 120 h, NL-RLuc virus infecting MT-2 cells, 5 days of incubation, luciferase readout; at least 2 experiments; serum condition not given; read-out: EC50.
In the case of `C=CCOC1(C)CCN(c2c([C@H](OC(C)(C)C)C(=O)O)c(C)nc3cc(-c4cnn(Cc5ccccc5)c4)nn23)CC1` [Example 40, (S)-2-(7-(4-(Allyloxy)-4-methylpiperidin-1-yl)-2-(1-benzyl-1H-pyrazol-4-yl)-5-methylpyrazolo[1,5-a]pyrimidin-6-yl)-2-(tert-butoxy)acetic acid], the EC50 was 11 nM.
On the same count and under the same terms, for `Cc1nc2cc(-c3ncc(Cc4ccc(F)cc4)s3)nn2c(C2=CCC(C)(C)CC2)c1[C@H](OC(C)(C)C)C(=O)O` [Example 10, (S)-2-(tert-Butoxy)-2-(7-(4,4-dimethylcyclohex-1-en-1-yl)-2-(5-(4-fluorobenzyl)thiazol-2-yl)-5-methylpyrazolo[1,5-a]pyrimidin-6-yl)acetic acid] the value was 19 nM; for `COC1(C)CCN(c2c([C@H](OC(C)(C)C)C(=O)O)c(C)nc3cc(-c4ncc(Cc5ccc(F)cc5)s4)nn23)CC1` [Example 22, (S)-2-(tert-Butoxy)-2-(2-(5-(4-fluorobenzyl)thiazol-2-yl)-7-(4-methoxy-4-methylpiperidin-1-yl)-5-methylpyrazolo[1,5-a]pyrimidin-6-yl)acetic acid], 12 nM.
For `C=CCOC1(C)CCN(c2c([C@H](OC(C)(C)C)C(=O)O)c(C)nc3cc(-c4cn(Cc5ccccc5)cn4)nn23)CC1` [Example 41, (S)-2-(7-(4-(Allyloxy)-4-methylpiperidin-1-yl)-2-(1-benzyl-1H-imidazol-4-yl)-5-methylpyrazolo[1,5-a]pyrimidin-6-yl)-2-(tert-butoxy)acetic acid], the EC50 turned out to be 15 nM.
With `Cc1nc2cc(-c3ncc(CCc4ccc(F)cc4)s3)nn2c(N2CCC(C)(C)CC2)c1[C@H](OC(C)(C)C)C(=O)O` [Example 16, (S)-2-(tert-Butoxy)-2-(7-(4,4-dimethylpiperidin-1-yl)-2-(5-(4-fluorophenethyl)thiazol-2-yl)-5-methylpyrazolo[1,5-a]pyrimidin-6-yl)acetic acid], the EC50 was 38 nM.
For `Cc1nc2cc(-c3ncc(-c4ccc(F)cc4)s3)nn2c(-c2cc(F)c3c(c2C)CCCO3)c1[C@H](OC(C)(C)C)C(=O)O` [Example 8, (2S)-2-(tert-Butoxy)-2-(7-(8-fluoro-5-methylchroman-6-yl)-2-(5-(4-fluorophenyl)thiazol-2-yl)-5-methylpyrazolo[1,5-a]pyrimidin-6-yl)acetic acid], the EC50 is 11 nM.
The same measure, in the same setting: for `C=CC1(C)CCN(c2c([C@H](OC(C)(C)C)C(=O)O)c(C)nc3cc(-c4ncc(Cc5ccc(F)cc5)s4)nn23)CC1` [Example 23, (S)-2-(tert-Butoxy)-2-(2-(5-(4-fluorobenzyl)thiazol-2-yl)-5-methyl-7-(4-methyl-4-vinylpiperidin-1-yl)pyrazolo[1,5-a]pyrimidin-6-yl)acetic acid] the value was 12 nM; for `C=CCOc1ccccc1Cc1cnn(-c2cc3nc(C)c([C@H](OC(C)(C)C)C(=O)O)c(N4CCC(C)(OCC=C)CC4)n3n2)c1` [Example 37, (S)-2-(7-(4-(Allyloxy)-4-methylpiperidin-1-yl)-2-(4-(2-(allyloxy)benzyl)-1H -pyrazol-1-yl)-5-methylpyrazolo[1,5-a]pyrimidin-6-yl)-2-(tert-butoxy)acetic acid], 11 nM; for `Cc1nc2cc(-n3ccc(Cc4ccccc4)n3)nn2c(N2CCC(C)(C)CC2)c1[C@H](OC(C)(C)C)C(=O)O` [Example 36, (S)-2-(2-(3-Benzyl-1H-pyrazol-1-yl)-7-(4,4-dimethylpiperidin-1-yl)-5-methylpyrazolo[1,5-a]pyrimidin-6-yl)-2-(tert-butoxy)acetic acid], 84 nM.
Take `Cc1cc(Cc2cnc(-c3cc4nc(C)c([C@H](OC(C)(C)C)C(=O)O)c(N5CCC(C)(C)CC5)n4n3)s2)ccc1F` [Example 15, (S)-2-(tert-Butoxy)-2-(7-(4,4-dimethylpiperidin-1-yl)-2-(5-(4-fluoro-3-methylbenzyl)thiazol-2-yl)-5-methylpyrazolo[1,5-a]pyrimidin-6-yl)acetic acid]: the concentration giving a half-maximal response (EC50) worked out at 19 nM.
Turning to `Cc1nc2cc(-n3cnc(Cc4ccccc4)c3)nn2c(N2CCC(C)(C)CC2)c1[C@H](OC(C)(C)C)C(=O)O` [Example 34, (S)-2-(2-(4-Benzyl-1H-imidazol-1-yl)-7-(4,4-dimethylpiperidin-1-yl)-5-methylpyrazolo[1,5-a]pyrimidin-6-yl)-2-(tert-butoxy)acetic acid], the EC50 turned out to be 26 nM.
For `Cc1nc2cc(-c3ncc(C(C)c4ccc(F)cc4)s3)nn2c(N2CCC(C)(C)CC2)c1[C@H](OC(C)(C)C)C(=O)O` (stereo partly drawn) [Example 14, (2S)-2-(tert-Butoxy)-2-(7-(4,4-dimethylpiperidin-1-yl)-2-(5-(1-(4-fluorophenyl)ethyl)thiazol-2-yl)-5-methylpyrazolo[1,5-a]pyrimidin-6-yl)acetic acid], the EC50 is 27 nM.
For `Cc1nc2cc(-n3nccc3Cc3ccccc3)nn2c(N2CCC(C)(C)CC2)c1[C@H](OC(C)(C)C)C(=O)O` [Example 35, (S)-2-(2-(5 Benzyl-1H-pyrazol-1-yl)-7-(4,4-dimethylpiperidin-1-yl)-5-methylpyrazolo[1,5-a]pyrimidin-6-yl)-2-(tert-butoxy)acetic acid], the half-maximal effective concentration (EC50) stood at 573 nM.
For the compound `Cc1nc2cc(-c3nc(Cc4ccc(F)cc4)no3)nn2c(-c2cc(F)c3c(c2C)CCCO3)c1[C@H](OC(C)(C)C)C(=O)O` [Example 7, (2S)-2-(tert-Butoxy)-2-(7-(8-fluoro-5-methylchroman-6-yl)-2-(3-(4-fluorobenzyl)-1,2,4-oxadiazol-5-yl)-5-methylpyrazolo[1,5-a]pyrimidin-6-yl)acetic acid], the EC50 came out at 28 nM.
Consider `Cc1nc2cc(-c3ncc(Cc4ccc(F)cc4)s3)nn2c(C2CCC(C)(C)CC2)c1[C@H](OC(C)(C)C)C(=O)O` [Example 11, (S)-2-(tert-Butoxy)-2-(7-(4,4-dimethylcyclohexyl)-2-(5-(4-fluorobenzyl)thiazol-2-yl)-5-methylpyrazolo[1,5-a]pyrimidin-6-yl)acetic acid], for which the EC50 amounted to 82 nM.
With `Cc1nc2cc(-c3nc4ccc(Cl)cc4n3C)nn2c(-c2cc(F)c3c(c2C)CCCO3)c1[C@H](OC(C)(C)C)C(=O)O` [Example 3, (2S)-2-(tert-Butoxy)-2-(2-(6-chloro-1-methyl-1H-benzo[d]imidazol-2-yl)-7-(8-fluoro-5-methylchroman-6-yl)-5-methylpyrazolo[1,5-a]pyrimidin-6-yl)acetic acid], the EC50 amounted to 100 nM.

Still in this assay, the particulars now being: NL-RLuc virus infecting MT-2 cells, 5 days of incubation, luciferase readout; at least 2 experiments; serum condition not given; read-out: EC50.
`Cc1nc2cc(N3CCC(Oc4ccccc4)C3=O)nn2c(N2CCC(C)(C)CC2)c1[C@H](OC(C)(C)C)C(=O)O` (stereo partly drawn) [Example 32, (2S)-2-(tert-Butoxy)-2-(7-(4,4-dimethylpiperidin-1-yl)-5-methyl-2-(2-oxo-3-phenoxypyrrolidin-1-yl)pyrazolo[1,5-a]pyrimidin-6-yl)acetic acid]: the EC50 was determined as 339 nM.
As for `Cc1nc2cc(N3CC(Cc4ccccc4)OC3=O)nn2c(N2CCC(C)(C)CC2)c1[C@H](OC(C)(C)C)C(=O)O` (stereo partly drawn) [Example 30, (2S)-2-(2-(5-Benzyl-2-oxooxazolidin-3-yl)-7-(4,4-dimethylpiperidin-1-yl)-5-methylpyrazolo[1,5-a]pyrimidin-6-yl)-2-(tert-butoxy)acetic acid], the EC50 is 16 nM.
